Data taken from patent US10940139B2, “Compounds that interact with the Ras superfamily for the treatment of cancers, inflammatory diseases, rasopathies, and fibrotic disease” (Shy Therapeutics LLC, priority 2017, dated 2021).
Read-outs that look alike come from different tables or passages of the source.

Assays:
Test in all cases: Ras GTP binding domain inhibition assay (labeled GTP)
[1] = target: KRas G12D mutant protein (Homo sapiens (Human), UniProt P01116, G12D)
[2] = target: KRas G12C mutant (Homo sapiens (Human), UniProt P01116, G12C)
How it was run: (§1)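 Inhibition of labeled GTP binding is measured on immobilized His-KRas protein in Tris buffer pH 7.5 with 1 mM MgCl2 and 1 mM DTT.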

[3] = target: KRas G12D/Q61H double mutant (Homo sapiens (Human), UniProt P01116, G12D/Q61H)
How it was run: as §1

[4] = target: KRas wild type (Homo sapiens (Human), UniProt P01116)
How it was run: as §1

[5] = 20 μM compound, read-out: % Inhibition at 20 μM KRas G12D
[6] = 20 μM compound, read-out: % Inhibition at 20 μM KRas G12C
[7] = 20 μM compound, read-out: % Inhibition at 20 μM KRas G12D Q61H
[8] = 20 μM compound, read-out: % Inhibition at 20 μM KRas wild type
[9] = 20 μM, read-out: KRas G12D % Inh.
[10] = 20 μM, read-out: KRas G12C % Inh.
[11] = 20 μM, read-out: KRas G12D Q61H % Inh.
[12] = 20 μM, read-out: KRas wild type, % Inh.
[13] = 20 μM compound, KRas G12D, read-out: % Inhibition at 20 μM of K-Ras mutant and wild-type protein, KRas G12D
[14] = 20 μM compound, KRas G12C, read-out: % Inhibition at 20 μM of K-Ras mutant and wild-type protein, KRas G12C
[15] = 20 μM compound, KRas wild type, read-out: % Inhibition at 20 μM of K-Ras mutant and wild-type protein, KRas wild type

KRas G12D mutant protein, sequence (P01116-2 other isoform, or with tags, fused parts or gaps G12D): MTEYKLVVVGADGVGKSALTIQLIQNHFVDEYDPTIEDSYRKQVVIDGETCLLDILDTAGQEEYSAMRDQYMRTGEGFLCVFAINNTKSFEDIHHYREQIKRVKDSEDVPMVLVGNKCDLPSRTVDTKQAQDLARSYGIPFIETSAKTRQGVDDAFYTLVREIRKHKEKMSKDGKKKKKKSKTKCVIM
KRas wild type, sequence (P01116-2 other isoform, or with tags, fused parts or gaps): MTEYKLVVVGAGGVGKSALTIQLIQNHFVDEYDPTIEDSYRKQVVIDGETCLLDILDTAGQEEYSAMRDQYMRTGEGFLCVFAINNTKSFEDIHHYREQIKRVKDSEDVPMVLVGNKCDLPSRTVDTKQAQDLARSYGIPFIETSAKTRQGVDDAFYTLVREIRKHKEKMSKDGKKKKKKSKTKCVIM
KRas G12C mutant, sequence (P01116-2 other isoform, or with tags, fused parts or gaps G12C): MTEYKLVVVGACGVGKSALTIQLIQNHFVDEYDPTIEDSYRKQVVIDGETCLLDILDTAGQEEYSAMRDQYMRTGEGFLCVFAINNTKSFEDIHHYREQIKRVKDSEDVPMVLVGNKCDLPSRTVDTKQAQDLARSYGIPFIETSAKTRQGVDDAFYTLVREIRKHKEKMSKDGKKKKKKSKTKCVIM
KRas G12D/Q61H double mutant, sequence (P01116-2 other isoform, or with tags, fused parts or gaps G12D/Q61H): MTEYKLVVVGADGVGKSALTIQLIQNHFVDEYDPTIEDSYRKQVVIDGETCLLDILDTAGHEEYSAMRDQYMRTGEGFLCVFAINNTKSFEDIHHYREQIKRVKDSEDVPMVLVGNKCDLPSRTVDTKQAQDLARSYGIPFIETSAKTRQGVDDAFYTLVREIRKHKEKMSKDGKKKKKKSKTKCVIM

Row | Compound | inhibition at 20 µM [1, 9] [%] | inhibition at 20 µM [2, 10] [%] | inhibition at 20 µM [3, 11] [%] | inhibition at 20 µM [4, 12] [%] | further results
1 | O=C(OCCc1cccnc1)N1CCCc2c(O)nc(-c3ccccn3)nc21 |  |  |  |  | inhibition at 20 µM [1, 5]: 51 to 75%; inhibition at 20 µM [2, 6]: 51 to 75%; inhibition at 20 µM [3, 7]: 51 to 75%; inhibition at 20 µM [4, 8]: 25 to 50%
2 | O=C(c1csc2c(O)nc(-c3ccccn3)nc12)N1CCN(c2ccccc2O)CC1 |  |  |  |  | inhibition at 20 µM [1, 5]: 25 to 50%; inhibition at 20 µM [2, 6]: 25 to 50%; inhibition at 20 µM [3, 7]: 25 to 50%; inhibition at 20 µM [4, 8]: 1 to 25%
3 | O=C(c1csc2c(O)nc(-c3ccccn3)nc12)N1CCOC(c2ccccc2F)C1 (stereo not drawn) |  |  |  |  | inhibition at 20 µM [1, 5]: 51 to 75%; inhibition at 20 µM [2, 6]: 25 to 50%; inhibition at 20 µM [3, 7]: 25 to 50%; inhibition at 20 µM [4, 8]: 76 to 100%
4 | COc1ccc(CCNC(=O)c2csc3nc(-c4ccccn4)nc(N4CCN(C)CC4)c23)cn1 |  |  |  |  | inhibition at 20 µM [1, 5]: 25 to 50%; inhibition at 20 µM [2, 6]: 25 to 50%; inhibition at 20 µM [3, 7]: 25 to 50%; inhibition at 20 µM [4, 8]: 25 to 50%
5 | Cc1cnc(-c2ccccn2)nc1NC(=O)COCc1ccncc1 |  |  |  |  | inhibition at 20 µM [1, 5]: 51 to 75%; inhibition at 20 µM [2, 6]: 51 to 75%; inhibition at 20 µM [3, 7]: 51 to 75%; inhibition at 20 µM [4, 8]: 51 to 75%
6 | O=C(Nc1nnc(-c2ccccn2)[nH]1)c1ccn(-c2ccccc2)n1 [drawing 2464] | 76 to 100 | 51 to 75 | 76 to 100 | 51 to 75 | 
7 | COc1ccc(CCC(=O)Nc2nnc(-c3ccccn3)[nH]2)cc1 [drawing 2469] | 25 to 50 | 25 to 50 | 51 to 75 | 25 to 50 | 
8 | O=C(Nc1nnc(-c2ccccn2)[nH]1)c1ccc2ccccc2n1 [drawing 2472] | 76 to 100 | 25 to 50 | 76 to 100 | 51 to 75 | 
9 | CN(Cc1nnc(-c2ccccc2Cl)o1)Cc1ccccc1C(F)(F)F [drawing 2482] | 25 to 50 | 1 to 25 | 51 to 75 | 1 to 25 | 
10 | O=C(Nc1nnc(-c2ccccn2)[nH]1)C1CC(=O)N(Cc2cccc(C(F)(F)F)c2)C1 (stereo not drawn) [drawing 2547] | 51 to 75 | 1 to 25 | 51 to 75 | 25 to 50 | 
11 | O=C(Nc1nnc(-c2ccccn2)[nH]1)c1ccn(-c2cccc(Cl)c2)n1 [drawing 2559] | 76 to 100 | 1 to 25 | 76 to 100 | 25 to 50 | 
12 | CS(=O)(=O)N1CCCc2cc(C(=O)Nc3nnc(-c4ccccn4)[nH]3)ccc21 [drawing 2561] | 51 to 75 | 25 to 50 | 76 to 100 | 51 to 75 | 
13 | COc1ccc(OCc2nc(CNCCc3nnc4n3CCC4)cs2)cc1 [drawing 2565] | 51 to 75 | 25 to 50 | 51 to 75 | 1 to 25 | 
14 | O=C(Nc1nc(-c2ccccn2)cs1)c1cccc(F)c1 [drawing 2567] | 51 to 75 | 25 to 50 | 51 to 75 | 51 to 75 | 
15 | Cc1cc(C(=O)Nc2nc(-c3ccccn3)cs2)no1 [drawing 2568] | 25 to 50 | 25 to 50 | 76 to 100 | 25 to 50 | 
16 | CS(=O)(=O)Cc1ccc(C(=O)Nc2nc(-c3ccccn3)cs2)cc1 [drawing 2572] | 1 to 25 | 25 to 50 | 51 to 75 | 1 to 25 | 
17 | O=C(Nc1nc(-c2ccccn2)cs1)c1ccccn1 [drawing 2573] | 51 to 75 | 51 to 75 | 76 to 100 | 51 to 75 | 
18 | O=C(Nc1nc(-c2ccccn2)cs1)c1cccnc1 [drawing 2576] | 51 to 75 | 51 to 75 | 51 to 75 | 25 to 50 | 
19 | O=C(Nc1nc(-c2ccccn2)cs1)c1ccncc1 [drawing 2578] | 51 to 75 | 51 to 75 | 51 to 75 | 51 to 75 | 
20 | COc1cccc(C(=O)Nc2nc(-c3ccccn3)cs2)c1 [drawing 2580] | 51 to 75 | 51 to 75 | 51 to 75 | 25 to 50 | 
21 | COc1ccc(C(=O)Nc2nc(-c3ccccn3)cs2)cn1 [drawing 2581] | 76 to 100 | 51 to 75 | 51 to 75 | 51 to 75 | 
22 | O=c1nc(-c2ccccn2)[nH]c2scc(-c3ccccc3Cl)c12 [drawing 2585] | 51 to 75 | 25 to 50 | 51 to 75 | 25 to 50 | 

Row | Compound | inhibition at 20 µM [1, 9] [%] | inhibition at 20 µM [2, 10] [%] | inhibition at 20 µM [3, 11] [%] | inhibition at 20 µM [4, 12] [%] | further results
23 | O=c1nc(-c2ccccn2)[nH]c2c1CCC2 [drawing 2591] | 51 to 75 | 25 to 50 | 51 to 75 | 25 to 50 | 
24 | Cc1cc2c(=O)nc(-c3cc(OCC(F)F)ccn3)[nH]c2s1 [drawing 2593] | 51 to 75 | 25 to 50 | 76 to 100 | 25 to 50 | 
25 | OCCNc1nc(-c2ccccn2)nc2scc(-c3ccccc3)c12 [drawing 2603] | 51 to 75 | 1 to 25 | 25 to 50 | 1 to 25 | 
26 | COCC(C)Nc1nc(-c2ccccn2)nc2sc(C)c(-c3ccccc3)c12 (stereo not drawn) [drawing 2604] | 51 to 75 | 25 to 50 | 51 to 75 | 25 to 50 | 
27 | CC(O)CNc1nc(-c2ccccn2)nc2scc(-c3ccccc3)c12 (stereo not drawn) [drawing 2607] | 51 to 75 | 1 to 25 | 51 to 75 | 25 to 50 | 
28 | NC(=O)C1(CNc2nc(-c3ccccn3)nc3c2CCC3)CCCC1 [drawing 2608] | 51 to 75 | 25 to 50 | 51 to 75 | 25 to 50 | 
29 | OCCOCCNc1nc(-c2ccccn2)nc2scc(-c3ccccc3)c12 [drawing 2609] | 25 to 50 | 25 to 50 | 51 to 75 | 25 to 50 | 
30 | Cc1sc2nc(-c3ccccn3)nc(NCCCO)c2c1-c1ccccc1 [drawing 2610] | 51 to 75 | 51 to 75 | 51 to 75 | 25 to 50 | 
31 | COC(=O)c1cccc(CN2CCC(CSc3ccccc3)C2)c1C#N (stereo not drawn) [drawing 2611] | 1 to 25 | 25 to 50 | 25 to 50 | 1 to 25 | 
32 | COC(=O)c1cc(NCc2nc(CC(C)C)no2)ccc1Cl [drawing 2612] | 51 to 75 | 25 to 50 | 51 to 75 | 1 to 25 | 
33 | Cc1cccc(CN(Cc2ccccn2)Cc2nccn2C)c1 [drawing 2613] | 51 to 75 | 25 to 50 | 51 to 75 | 25 to 50 | 
34 | COc1ccc(CCC(=O)N2CCCc3c(O)nc(-c4ccccn4)nc32)cc1 [drawing 2640] | 25 to 50 | 51 to 75 | 51 to 75 | 25 to 50 | 
35 | O=C(c1ccc2ccccc2n1)N1CCCc2c(O)nc(-c3ccccn3)nc21 [drawing 2642] | 51 to 75 | 51 to 75 | 76 to 100 | 25 to 50 | 
36 | O=C(c1ccn(-c2ccccc2)n1)N1CCCc2c(O)nc(-c3ccccn3)nc21 [drawing 2644] | 51 to 75 | 25 to 50 | 76 to 100 | 25 to 50 | 
37 | Cn1ccnc1-c1nc(O)c2scc(-c3ccccc3Cl)c2n1 [drawing 3615] |  |  |  |  | inhibition at 20 µM [1, 13]: 25 to 50%; inhibition at 20 µM [2, 14]: 25 to 50%; inhibition at 20 µM [4, 15]: 25 to 50%
38 | Cn1ccnc1-c1nc(O)c2scc(-c3ccc(F)cc3F)c2n1 [drawing 3616] |  |  |  |  | inhibition at 20 µM [1, 13]: 25 to 50%; inhibition at 20 µM [2, 14]: 1 to 25%; inhibition at 20 µM [4, 15]: 1 to 25%
39 | Cn1ccnc1-c1nc(O)c2scc(-c3cccc(Cl)c3)c2n1 [drawing 3617] |  |  |  |  | inhibition at 20 µM [1, 13]: 25 to 50%; inhibition at 20 µM [2, 14]: 25 to 50%; inhibition at 20 µM [4, 15]: 25 to 50%
40 | COC(C)(C)c1ccc(-c2csc3c(O)nc(-c4nccn4C)nc23)cc1 [drawing 3618] |  |  |  |  | inhibition at 20 µM [1, 13]: 25 to 50%; inhibition at 20 µM [2, 14]: 0%; inhibition at 20 µM [4, 15]: 25 to 50%
41 | Cn1ccnc1-c1nc(O)c2scc(-c3ccc(C(C)(C)C)cc3)c2n1 [drawing 3619] |  |  |  |  | inhibition at 20 µM [1, 13]: 1 to 25%; inhibition at 20 µM [2, 14]: 25 to 50%; inhibition at 20 µM [4, 15]: 1 to 25%
42 | COCCNc1nc(-c2ccccn2)nc2sc(-c3ccccc3)c(-c3ccccn3)c12 [drawing 3620] |  |  |  |  | inhibition at 20 µM [1, 13]: 1 to 25%; inhibition at 20 µM [2, 14]: 1 to 25%; inhibition at 20 µM [4, 15]: 0%
43 | Cc1sc2c(O)nc(-c3nccn3C)nc2c1-c1ccc(F)cc1F [drawing 3621] |  |  |  |  | inhibition at 20 µM [1, 13]: 1 to 25%; inhibition at 20 µM [2, 14]: 1 to 25%; inhibition at 20 µM [4, 15]: 1 to 25%
44 | COCCNc1nc(-c2nccn2C)nc2sc(-c3ccccc3)c(-c3ccccn3)c12 [drawing 3622] |  |  |  |  | inhibition at 20 µM [1, 13]: 25 to 50%; inhibition at 20 µM [2, 14]: 25 to 50%; inhibition at 20 µM [4, 15]: 51 to 75%
